Legend:
Type in all cases: cell-based
C2C12 myoblasts [1] = assay: PA-induced senescence in C2C12 myoblasts (immunoblot of senescence markers, EdU incorporation); settings: C2C12 cells
Experimental: (§1) Cells were washed briefly with ice-cold 1×PBS, scraped in 400 μL T-PER lysis buffer (ThermoFisher) supplemented with 0.1 mM phenylmethylsulphonyl fluoride (PMSF) and protease/phosphatase inhibitor cocktail tablet (ThermoFisher). Pulverised tissue samples (20-30 mg) were lysed in the same buffer accelerated by sonication and passing through a 21 G needle. To pellet any debris, lysates were centrifuged at 10,000 g for 10 minutes at 4° C., with the supernatant transferred to fresh tubes. Protein concentrations were determined with Bradford assay (Biorad) and lysates were diluted to equal concentration with lysis buffer. Protein lysates were then mixed with Laemmli buffer, vortexed and heated to 95° C. for 5 min. Equal amounts of protein lysates in parallel with protein molecular weight marker (ThermoFisher) were loaded onto pre-cast polyacrylamide gels (Nupage 10 or 12% Bis Tris gel, Novex, Invitrogen) and separated by electrophoresis at 200V for 1 hour. Proteins were transferred onto polyvinylidene difluoride (PVDF) membrane (Invitrogen) using an electrophoretic transfer cell (Mini Trans-Blot, Bio-Rad) in ice-cold transfer buffer (48 mM Tris base, […], 0.1% SDS, 20% methanol (v/v)) at 300 mA for 2 hours. Membranes were blocked in 1× skimmed milk (ThermoFisher) for 1 hour at room temperature, followed by overnight incubation with primary antibody diluted in blocking buffer at 4° C. Next day membranes were washed, followed by 60 minutes incubation in the corresponding horseradish peroxidase (HRP)-conjugated secondary antibody diluted 1:2000-10000 in blocking buffer (all Abcam). Blots were developed using enhanced chemiluminescence (ECL) reagents (normal, Prime & Select) and digital images were acquired using an imaging system (Azure Biosystems). Membranes were usually stripped of antibodies and reprobed with an antibody targeting a protein serving as loading control (α-actinin for hearts & β-actin for all others). For this procedure, membranes were placed in Guanidine-HCl-based stripping solution (6M Guanidine-HCl, 0.2% Nonidet P-40, 0.1M β-mercaptoethanol, 20 mM Tris-HCl, pH 7.5 and 100 mM 2-mercaptoethanol) and incubated for 10 minutes at room temperature with gentle agitation, followed by extensive washing and re-blocking.^5
(§2) C2C12 (ATCC® CRL-1772™) myoblasts maintained in DMEM supplemented with L-glutamine (2 mM), penicillin/streptomycin (1%) and 5% fetal bovine serum (FBS) were seeded either at a density of 5×10^4 cells (<50%) per well in 24-well plates or 10^4 cells in 4-well chamber slides. Cells were with L-phenylalanine (1-10 mM)+BH4 (10 μM) and incubation with increasing concentrations of N-acetylcysteine (0.5, 2.5, 5 mM) vs. vehicle overnight as indicated. Cells were analysed for oxidative stress with MitoSOX™ (mitochondrial superoxide; 5 μM, ThermoFisher Scientific), CellROX™ (cytosolic superoxide; 5 μM, ThermoFisher Scientific), gene or protein expression, or various metabolites (see below).

C2C12 myoblasts [2] = assay: Oxidative stress in C2C12 cells (CellROX cytosolic superoxide, MitoSOX mitochondrial superoxide, GSH)
Experimental: as §2
(§3) Levels of reduced glutathione (GSH; ThermoFisher), phenylalanine (BioVision) and tyrosine (BioVision) were determined from cells or plasma, with respective agents/kits following the manufacturer's recommendations. Specifically, GSH levels were estimated with the aid of ThiolTracker™ Violet fluorescent probe (ThermoFisher). Plasma and liver phenylalanine levels were determined using an enzyme-coupled, fluorometric method (BioVision). Briefly, samples were deproteinized via trichloroacetate precipitation, neutralised, tyrosinase-treated (to remove tyrosine that may interfere) and diluted to fit in the standard curve. Fluorescence reading took place at 587 nm after excitation at 535 nm. Levels of tyrosine in cells or conditioned media were determined after deproteinization using 10 kDa cut-off columns with an enzyme-coupled, colorimetric method with reading at 491 nm (BioVision).

AML-12 hepatocytes = assay: AML-12 hepatocytes: p21, Pah immunoblot and tyrosine production; settings: Nutlin3a vs. vehicle
Experimental: as §1
AML12 cells (ATCC® CRL-2254™) were maintained in DMEM/F-12 (1:1) culture media supplemented with 10% FBS, 10 μg/ml insulin, 5.5 μg/ml transferrin, 5 ng/ml selenium, 40 ng/ml dexamethasone and 1% penicillin/streptomycin. Cells were sub-cultivated from subconfluent flasks with a ratio from 1:4 to 1:8. For WB analysis, cells were plated on 6-well plates and harvested at 80-90% of confluence. AML12 cells were transfected with indicated siRNA (Table 2) at 80% confluence using Lipofectamine RNAiMAX Transfection Reagent (ThermoFischer Scientific 13778030) following the manufacturer's instructions. Transfection efficiency was constantly checked using BLOCK-IT Alexa Fluor Red Fluorescent Control (ThermoFischer Scientific 14750100).
as §3

**Q.** Which results are given for `N[C@@H](Cc1ccc(Cl)cc1)C(=O)O` (racemic) [4-CPA, 4-chlorophenylalanine]?
**A.** BH4 antagonism of PA-dependent senescence (C2C12 myoblasts [1]; PA 5 mM + BH4 10 μM + 4-CPA 1.5 mM, FIG. 1c-d): reversed; BH4 rescue of superoxide levels (C2C12 myoblasts [2]; PA + BH4 + 4-CPA, FIG. 1f): prevented

**Q.** For `COc1ccc(C2=N[C@@H](c3ccc(Cl)cc3)[C@@H](c3ccc(Cl)cc3)N2C(=O)N2CCNC(=O)C2)c(OC(C)C)c1` [Nutlin3a], which Pah (AML-12 hepatocytes; FIG. 4o) is on record?
**A.** downregulated

**Q.** What about the “hepatocyte senescence (i.e. p-p53 and p21)” value (AML-12 hepatocytes; FIG. 4o) of the same molecule?
**A.** induced

**Q.** And the “tyrosine production (tyrosine levels in media)” value (AML-12 hepatocytes; FIG. 4p)?
**A.** depressed

**Q.** With `CC(=O)N[C@@H](CS)C(=O)O` [NAC, N-acetylcysteine] as the molecule, how does the “p21 induction by PA” value (C2C12 myoblasts [1]; PA + N-acetylcysteine (0.5, 2.5, 5 mM), data not shown) read?
**A.** failed to prevent

**Q.** And the “cytosolic superoxide levels under PA treatment” value (C2C12 myoblasts [2]; PA plus co-treatment (BH4 10 μM or NAC), FIG. 1f)?
**A.** restored normal

**Q.** What about the “reduced glutathione (GSH) levels under PA treatment” value (C2C12 myoblasts [2]; PA plus co-treatment, data not shown) of the same molecule?
**A.** restored normal
